Measured values reported in patent publication US20140350273A1, “PEDIATRIC USES OF CABAZITAXEL” (AVENTIS PHARMA S.A., priority 2012, published 2014).
Read-outs that look alike come from different tables or passages of the source.

Tested on: human osteosarcoma DM113
Type: in vivo
Conditions: for Tumor Volume Data (Day 28) Median / ΔT/ΔC %: day 28; for MTTE / T-C: volume endpoint 1600 mm^3
Procedure: The resultant solution contains 10 mg/mL of cabazitaxel. Stock solution of cabazitaxel was then diluted in 0.9% sodium chloride.
This efficacy may be quantified, for example, as changes in tumor volume for each treated (T) and control (C) group, which are calculated for each animal and each day by subtracting the tumor volume on the day of first treatment (staging day) from the tumor volume on the specified observation day. This allows calculating the tumor growth inhibition: ΔT/ΔC=(median delta T/median delta C)×100. Individual tumor volume changes from baseline are thereafter analyzed by a non-parametric two-way ANOVA-TYPE (with factors: group and repeated days) followed by a post-hoc contrasts analysis, with Bonferroni-Holm adjustment for multiplicity, comparing all treated groups to the control group. […] A probability less than 5% (p<0.05) was considered as significant.
Based on the National Cancer Institute (NCl) standards, a ΔT/ΔC≦40% is the minimal level required to declare activity.
This efficacy may also be quantified by the number of tumor regressions observed after therapy. Individual mice reporting a tumor volume ≦50% of the Day 0 measurement for two consecutive measurements over a seven day period were considered partial responders (PR). Individual mice lacking palpable tumors (<4×4 mm^2 for two consecutive measurements over a seven day period) were classified as complete responders (CR); a CR that persisted until study completion was considered a tumor-free survivor (TFS).
Efficacy could also be determined at study completion, using tumor growth delay (T-C) in days, which is calculated using the median time to endpoint (MTTE) value for each treatment (T) group versus control (C). A Log Rank multiple comparison test with Bonferroni-Holm adjustment for multiplicity was applied on individual TTE to compare the treated groups to the control group.
The animals subjected to the experiment are subcutaneously grafted unilaterally with approximately 30 mg of a tumor fragment from low passage pediatric patient-derived tumor xenografts. The animals are implanted with a human patient-derived pediatric tumor xenografted in immuno-compromised mice (Harlan; nu/nu). Several days post tumor implantation, mice are randomized according to their tumor burden to the different groups of treatments and controls. The agents are dosed intravenously at 5.8, 9.3, 15 or 24.2 mg/kg every 4 days for a total of 3 doses (q4d×3) to mice bearing a tumor burden at start of therapy (day 0) ranged from 125 to 250 mm^3.
Beginning Day 0, animals were observed daily and weighed twice weekly using a digital scale; data including individual and mean gram weights (Mean We±SD), mean percent weight change versus Day 0 were recorded for each group. Animal deaths were recorded daily and designated as drug-related (D), technical (T), tumor related (B), or unknown (U) based on weight loss and gross observation; single agent or combination groups reporting a mean >20% for a period of 7 days and/or >10% mortality were considered above the maximum tolerated dose (MTD) for that treatment on the evaluated regimen.
The selected tumor model, DM113, was a low passage patient-derived tumor xenograft derived from an osteosarcoma taken from the lung of a patient.
The following end points were used: • Toxicity was declared at dosages inducing ≧20% body weight loss or ≧10% drug death; • Antitumor efficacy was determined by calculating the ΔT/ΔC value in percent on day 28 post treatment initiation, according to the above mentioned formula; • Individual tumor volume changes from baseline were analyzed by a non-parametric two-way ANOVA-TYPE (with factors: group and repeated day from 3 to 28) followed by a post-hoc contrasts analysis, with Bonferroni-Holm adjustment for multiplicity, comparing all treated groups to the control group on day 28. […] The volume endpoint for T-C calculations was chosen to be 1600 mm^3.

## CO[C@H]1C(=O)[C@]2(C)[C@@H](OC)C[C@H]3OC[C@@]3(OC(C)=O)[C@H]2[C@H](OC(=O)c2ccccc2)[C@]2(O)C[C@H](OC(=O)[C@H](O)[C@@H](NC(=O)OC(C)(C)C)c3ccccc3)C(C)=C1C2(C)C [Cabazitaxel, 4α-acetoxy-2α-benzoyloxy-5β,20-epoxy-1β-hydroxy-7β,10β-dimethoxy-9-oxo-11-taxen-13α-yl (2R,3S)-3-tert-butoxycarbonyl-amino-2-hydroxy-3-phenylpropionate]
5.8 mg/kg i.v./q4dx3
  #CR: 0/0/0
  #PR: 0/0/0
  #TFS: 0/0/0
  Drug Deaths Total: 0
  Tumor Volume Data (Day 28) Median: 512.5 mm^3
  ΔT/ΔC %: 29.4%
  MTTE: 47 days
  T-C: 16 days
5.8 mg/kg, DAY 3
  tumor volume changes from baseline, Median +/− MAD: 58 +/− 21.5
5.8 mg/kg, DAY 8
  tumor volume changes from baseline, Median +/− MAD: 63.5 +/− 37
5.8 mg/kg, DAY 11
  tumor volume changes from baseline, Median +/− MAD: 63.5 +/− 21.5
5.8 mg/kg, DAY 14
  tumor volume changes from baseline, Median +/− MAD: 95 +/− 41.5
5.8 mg/kg, DAY 17
  tumor volume changes from baseline, Median +/− MAD: 95 +/− 59
5.8 mg/kg, DAY 21
  tumor volume changes from baseline, Median +/− MAD: 158.5 +/− 39.5
5.8 mg/kg, DAY 24
  tumor volume changes from baseline, Median +/− MAD: 234 +/− 83.5
5.8 mg/kg, DAY 28
  tumor volume changes from baseline, Median +/− MAD: 334.5 +/− 96
5.8 mg/kg, DAY 31
  tumor volume changes from baseline, Median +/− MAD: 459.5 +/− 123
5.8 mg/kg, DAY 35
  tumor volume changes from baseline, Median +/− MAD: 579.5 +/− 228
5.8 mg/kg, DAY 38
  tumor volume changes from baseline, Median +/− MAD: 834.5 +/− 245
5.8 mg/kg, DAY 42
  tumor volume changes from baseline, Median +/− MAD: 1097 +/− 248
5.8 mg/kg, DAY 46
  tumor volume changes from baseline, Median +/− MAD: 1548.5 +/− 438.5
9.3 mg/kg i.v./q4dx3
  #CR: 0/0/0
  #PR: 0/0/0
  #TFS: 0/0/0
  Drug Deaths Total: 0
  Weight Nadir %: −3%
  Weight Nadir Day: 3
  Tumor Volume Data (Day 28) Median: 204 mm^3
  ΔT/ΔC %: 1.8%
  MTTE: >59 days
  T-C: >28 days
9.3 mg/kg, DAY 3
  tumor volume changes from baseline, Median +/− MAD: 29.5 +/− 27
9.3 mg/kg, DAY 8
  tumor volume changes from baseline, Median +/− MAD: 29.5 +/− 29.5
9.3 mg/kg, DAY 11
  tumor volume changes from baseline, Median +/− MAD: 29.5 +/− 29.5
9.3 mg/kg, DAY 14
  tumor volume changes from baseline, Median +/− MAD: 9 +/− 9
9.3 mg/kg, DAY 17
  tumor volume changes from baseline, Median +/− MAD: 0 +/− 0
9.3 mg/kg, DAY 21
  tumor volume changes from baseline, Median +/− MAD: 0 +/− 9
9.3 mg/kg, DAY 24
  tumor volume changes from baseline, Median +/− MAD: 0 +/− 31
9.3 mg/kg, DAY 28
  tumor volume changes from baseline, Median +/− MAD: 20 +/− 39.5
9.3 mg/kg, DAY 31
  tumor volume changes from baseline, Median +/− MAD: 69 +/− 69
9.3 mg/kg, DAY 35
  tumor volume changes from baseline, Median +/− MAD: 87.5 +/− 70.5
9.3 mg/kg, DAY 38
  tumor volume changes from baseline, Median +/− MAD: 182 +/− 155.5
9.3 mg/kg, DAY 42
  tumor volume changes from baseline, Median +/− MAD: 311 +/− 248
9.3 mg/kg, DAY 46
  tumor volume changes from baseline, Median +/− MAD: 576 +/− 317.5
15 mg/kg i.v./q4dx3
  #CR: 0
  #PR: 4
  #TFS: 0
  Drug Deaths Total: 0
  Weight Nadir %: −9%
  Weight Nadir Day: 14
  Tumor Volume Data (Day 28) Median: 131 mm^3
  ΔT/ΔC %: −4.4%
  MTTE: >59 days
  T-C: >28 days
15 mg/kg q4d×3 IV
  numbers of PR: 4/10
15 mg/kg, DAY 3
  tumor volume changes from baseline, Median +/− MAD: 13 +/− 13
15 mg/kg, DAY 8
  tumor volume changes from baseline, Median +/− MAD: 0 +/− 0
15 mg/kg, DAY 11
  tumor volume changes from baseline, Median +/− MAD: −23.5 +/− 23.5
15 mg/kg, DAY 14
  tumor volume changes from baseline, Median +/− MAD: −40.5 +/− 30
15 mg/kg, DAY 17
  tumor volume changes from baseline, Median +/− MAD: −40.5 +/− 30
15 mg/kg, DAY 21
  tumor volume changes from baseline, Median +/− MAD: −40.5 +/− 30
15 mg/kg, DAY 24
  tumor volume changes from baseline, Median +/− MAD: −50 +/− 36.5
15 mg/kg, DAY 28
  tumor volume changes from baseline, Median +/− MAD: −50 +/− 36.5
15 mg/kg, DAY 31
  tumor volume changes from baseline, Median +/− MAD: −53 +/− 36.5
15 mg/kg, DAY 35
  tumor volume changes from baseline, Median +/− MAD: −59.5 +/− 29
15 mg/kg, DAY 38
  tumor volume changes from baseline, Median +/− MAD: −59.5 +/− 39.5
15 mg/kg, DAY 42
  tumor volume changes from baseline, Median +/− MAD: −59.5 +/− 39.5
15 mg/kg, DAY 46
  tumor volume changes from baseline, Median +/− MAD: −59.5 +/− 42.5
24.2 mg/kg i.v./q4dx3
  #CR: 0
  #PR: 5
  #TFS: 0
  Drug Deaths Total: 0
  Weight Nadir %: −11%
  Weight Nadir Day: 11
  Tumor Volume Data (Day 28) Median: 112 mm^3
  ΔT/ΔC %: −3.6%
  MTTE: >59 days
  T-C: >28 days
24.2 mg/kg q4d×3 IV
  numbers of PR: 5/10
24.2 mg/kg, DAY 3
  tumor volume changes from baseline, Median +/− MAD: 9.5 +/− 9.5
24.2 mg/kg, DAY 8
  tumor volume changes from baseline, Median +/− MAD: 0 +/− 26.5
24.2 mg/kg, DAY 11
  tumor volume changes from baseline, Median +/− MAD: −40.5 +/− 34
24.2 mg/kg, DAY 14
  tumor volume changes from baseline, Median +/− MAD: −43.5 +/− 28.5
24.2 mg/kg, DAY 17
  tumor volume changes from baseline, Median +/− MAD: −40.5 +/− 24.5
24.2 mg/kg, DAY 21
  tumor volume changes from baseline, Median +/− MAD: −40.5 +/− 24.5
24.2 mg/kg, DAY 24
  tumor volume changes from baseline, Median +/− MAD: −40.5 +/− 40.5
24.2 mg/kg, DAY 28
  tumor volume changes from baseline, Median +/− MAD: −40.5 +/− 40.5
24.2 mg/kg, DAY 31
  tumor volume changes from baseline, Median +/− MAD: −40.5 +/− 34
24.2 mg/kg, DAY 35
  tumor volume changes from baseline, Median +/− MAD: −51 +/− 41.5
24.2 mg/kg, DAY 38
  tumor volume changes from baseline, Median +/− MAD: −51 +/− 41.5
24.2 mg/kg, DAY 42
  tumor volume changes from baseline, Median +/− MAD: −51 +/− 41.5
24.2 mg/kg, DAY 46
  tumor volume changes from baseline, Median +/− MAD: −51 +/− 41.5
Conclusion of example 5, 9.3, 15 and 24.2 mg/kg dose levels
  antitumor activity compared with docetaxel: higher efficacy than docetaxel
